Results from patent US10597390B2, “Indoles for use in influenza virus infection” (Janssen Sciences Ireland UC, priority 2014, dated 2020).

Key:
[1] = test system: influenza virus A/Taiwan/1/86 (H1N1); assay: organism not typed; format: cell-based; conditions: MDCK, 72 h, CPE in MDCK cells, three days post-virus exposure, ATPlite
in vitro = conditions: dog, TOX MDCK CC50

SMILES | IC50 [1] [nM] | CC50 at 3 days (in vitro) [nM]
Cn1nc(CO)cc1C(=O)N[C@@H]1CCC[C@H](Nc2nc(-c3c[nH]c4c(F)cc(F)cc34)ncc2F)C1 (relative stereo) [Compound 262, N-((1R*,3S*)-3-((2-(5,7-difluoro-1H-indol-3-yl)-5-fluoropyrimidin-4-yl)-amino)cyclohexyl)-3-(hydroxymethyl)-1-methyl-1H-pyrazole-5-carboxamide] | 46 | > 25000
O=C(N[C@H]1CCC[C@@H](Nc2nc(-c3c[nH]c4c(F)cc(F)cc34)ncc2F)C1)N1CCCC1 (single isomer, unassigned) [Compound 9, N-((1R*,3S*)-3-((2-(5,7-difluoro-1H-indol-3-yl)-5-fluoropyrimidin-4-yl)-amino)cyclohexyl)pyrrolidine-1-carboxamide] | 3 | > 25000
CC(C)(C)[C@H](CC(=O)O)Nc1nc(-c2c[nH]c3c(F)cc(F)cc23)c(C(F)(F)F)cc1F (single isomer, unassigned) [Compound 17, (S*)-3-((6-(5,7-difluoro-1H-indol-3-yl)-3-fluoro-5-(trifluoromethyl)pyridin-2-yl)amino)-4,4-dimethylpentanoic acid] | 37 | 6200
CC(C)(C)[C@@H](CC(=O)O)Nc1nc(-c2c[nH]c3c(F)cc(F)cc23)c(C(F)(F)F)cc1F (single isomer, unassigned) [Compound 18, (R*)-3-((6-(5,7-difluoro-1H-indol-3-yl)-3-fluoro-5-(trifluoromethyl)pyridin-2-yl)amino)-4,4-dimethylpentanoic acid] | > 25000 | 210
CC(C)(C)C(Cc1nnn[nH]1)Nc1nc(-c2c[nH]c3c(F)cc(F)cc23)ncc1F (centres unmarked) [Compound 19, 2-(5,7-difluoro-1H-indol-3-yl)-N-(3,3-dimethyl-1-(1H-tetrazol-5-yl)butan-2-yl)-5-fluoropyrimidin-4-amine] | 160 | 3700
Cc1cc(F)c2[nH]cc(-c3nc(NC(CC(=O)O)C(C)(C)c4ccn(C)n4)c(F)cc3C#N)c2c1 (centres unmarked) [Compound 25, 3-((5-cyano-3-fluoro-6-(7-fluoro-5-methyl-1H-indol-3-yl)pyridin-2-yl)amino)-4-methyl-4-(1-methyl-1H-pyrazol-3-yl)pentanoic acid] | 41 | 900
Cn1cnc(C(=O)N[C@@H]2CCC[C@H](Nc3nc(-c4c[nH]c5c(F)cc(Cl)cc45)ncc3F)C2)c1 [Compound 26] | 3 | 7900
O=C(O)[C@H]1C2CCC(CC2)[C@@H]1Nc1nc(-c2c[nH]c3c(F)cc(Cl)cc23)ncc1F [Compound 30] | 3 | 200
CC(C)(C)C(CC(=O)O)Nc1nc(-c2c[nH]c3c(F)cc(Cl)cc23)ncc1F (centres unmarked) [Compound 39] | 11 | 860
CC(C)(C)[C@H](CC(=O)O)Nc1nc(-c2c[nH]c3c(F)cc(Cl)cc23)ncc1F [Compound 40] | 5 | 400
Cc1[nH]nnc1C(=O)N[C@@H]1CCC[C@H](Nc2nc(-c3c[nH]c4c(F)cc(Cl)cc34)ncc2F)C1 [Compound 78] | 2 | 5700
CN1CCC[C@H]1C(=O)N[C@H]1CCC[C@@H](Nc2nc(-c3c[nH]c4c(F)cc(F)cc34)ncc2F)C1 [Compound 82] | 270 | 12900
Cn1nc(N)cc1C(=O)N[C@@H]1CCC[C@H](Nc2nc(-c3c[nH]c4c(F)cc(F)cc34)ncc2F)C1 [Compound 85] | 2 | > 25000
Cc1[nH]nc(C(=O)N[C@@H]2CCC[C@H](Nc3nc(-c4c[nH]c5c(F)cc(F)cc45)ncc3F)C2)c1N [Compound 86] | 2 | 3100
COCc1cc(C(=O)N[C@@H]2CCC[C@H](Nc3nc(-c4c[nH]c5c(F)cc(F)cc45)ncc3F)C2)no1 [Compound 87] | 40 | 2400
O=C(N[C@@H]1CCC[C@H](Nc2nc(-c3c[nH]c4c(F)cc(F)cc34)ncc2F)C1)c1cn(CCO)cn1 [Compound 88] | 7 | 11500
